We go through 16 compounds from patent US20230203059A1, “MACROCYCLIC JAK INHIBITOR AND USES THEREOF” (Biopolar Hongye (Guangdong) Pharmaceutical Co. Ltd., priority 2020, published 2023).

Structures are written as SMILES.

Format in all cases: biochemical
The target of assay [1] is JAK2 (Homo sapiens, UniProt O60674). Description: JAK kinase activity, homogeneous time-resolved fluorescence (JAK2 reaction system). The conditions noted are these: ATP 2 μM, JAK2 protein 0.01 ng/μL. On the procedure: (§1) The activity measurement method of JAK kinase was to use homogeneous time-resolved fluorescence technique. The reaction was performed in 384 shallow well plates with a total reaction volume of 10 μL. The mixture of kinase protein, compound, ATP and substrate was carried out in a reaction buffer of 50 mM Hepes (pH7.0), NaN3 0.02%, BSA 0.01%, 0.1 mM Orthocanadate, 5 mM MgCl2, and 1 mM DTT. After reacting for 1 hour, an antibody capable of recognizing substrate phosphorylation, dye XL-615 and detection buffer (Cisbio) containing EDTA were added to the system. The reaction signal of kinase was detected by PE company's porous plate detector. The parameter settings were excitation light at 320 nm, emission light at 615 nm and 665 nm. The activity of JAK is indirectly reflected by the signal ratio of 665 nm and 615 nm. In the reaction, the background well without enzyme and the total enzyme activity well without compound were set.
(§2) The IC50 value of the compound inhibiting protein was obtained by the formula: Y=100/(1+10^((Log IC50−X)*HillSlope)). In JAK1 reaction system, the concentration of ATP was 2 μM, and the concentration of JAK1 protein was 0.2 ng/μL.
In JAK2 reaction system, the concentration of ATP was 2 μM, and the concentration of JAK2 protein was 0.01 ng/μL.

Assay [2] concerns the target TYK2 (Homo sapiens, UniProt P29597). Description: JAK kinase activity, homogeneous time-resolved fluorescence (TYK2 reaction system). The conditions noted are these: ATP 2 μM, TYK2 protein 0.2 ng/μL; read-out: TYK 2 activity. On the procedure: as §1, §2
In TYK2 reaction system, the concentration of ATP was 2 μM, and the concentration of TYK2 protein was 0.2 ng/μL.

Assay [3] addresses JAK1 (Homo sapiens, UniProt P23458). In words: JAK kinase activity, homogeneous time-resolved fluorescence (JAK1 reaction system). The conditions noted are these: ATP 2 μM, JAK1 protein 0.2 ng/μL; read-out: JAK 1 activity. As for the experimental part: as §1, §2
Assay [4] concerns the target T1, JAK3 (Homo sapiens, UniProt P52333).
T1 sequence (P52333 1-1124): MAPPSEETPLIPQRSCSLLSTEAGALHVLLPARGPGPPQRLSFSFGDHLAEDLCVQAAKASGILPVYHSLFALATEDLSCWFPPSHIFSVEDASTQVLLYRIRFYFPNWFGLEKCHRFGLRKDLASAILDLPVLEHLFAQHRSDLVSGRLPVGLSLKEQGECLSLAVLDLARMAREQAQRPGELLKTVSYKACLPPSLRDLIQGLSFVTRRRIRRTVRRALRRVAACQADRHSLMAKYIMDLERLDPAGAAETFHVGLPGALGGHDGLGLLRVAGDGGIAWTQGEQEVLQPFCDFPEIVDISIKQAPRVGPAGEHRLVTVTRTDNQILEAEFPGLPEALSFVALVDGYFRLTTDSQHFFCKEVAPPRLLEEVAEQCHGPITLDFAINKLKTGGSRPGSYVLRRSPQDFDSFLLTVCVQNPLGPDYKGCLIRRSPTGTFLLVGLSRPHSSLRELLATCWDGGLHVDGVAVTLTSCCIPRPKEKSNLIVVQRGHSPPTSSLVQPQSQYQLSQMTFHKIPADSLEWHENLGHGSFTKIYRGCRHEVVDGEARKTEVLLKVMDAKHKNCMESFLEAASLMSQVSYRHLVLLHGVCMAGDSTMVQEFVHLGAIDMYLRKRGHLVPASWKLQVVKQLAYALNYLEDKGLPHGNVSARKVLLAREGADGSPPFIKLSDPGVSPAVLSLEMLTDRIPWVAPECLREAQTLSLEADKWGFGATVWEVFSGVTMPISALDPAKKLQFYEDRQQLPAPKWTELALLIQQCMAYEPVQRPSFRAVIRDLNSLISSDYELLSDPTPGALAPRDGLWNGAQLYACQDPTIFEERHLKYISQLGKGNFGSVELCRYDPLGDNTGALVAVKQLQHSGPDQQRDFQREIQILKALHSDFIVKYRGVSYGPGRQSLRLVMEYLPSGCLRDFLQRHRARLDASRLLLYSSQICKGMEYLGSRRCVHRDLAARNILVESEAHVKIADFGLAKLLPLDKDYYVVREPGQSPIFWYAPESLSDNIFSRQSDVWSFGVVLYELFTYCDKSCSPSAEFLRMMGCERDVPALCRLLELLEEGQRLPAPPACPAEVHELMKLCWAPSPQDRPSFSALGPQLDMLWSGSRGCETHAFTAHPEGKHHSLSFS
In words: JAK kinase activity, homogeneous time-resolved fluorescence (JAK3 reaction system). The conditions noted are these: ATP 2 μM, JAK3 protein 0.04 ng/μL; read-out: JAK 3 activity. As for the experimental part:
as §1, with “The reaction was performed in 384 shallow well plates with a total reaction volume of 10 μL.” left out, “After reacting for 1 hour, an antibody capable of recognizing substrate phosphorylation, dye XL-615 and detection buffer (Cisbio) containing EDTA were added to the system.” left out, “set. […]” for “set.”
In JAK3 reaction system, the concentration of ATP was 2 μM, and the concentration of JAK3 protein was 0.04 ng/μL.

Sequence of JAK1 (P23458 whole entry): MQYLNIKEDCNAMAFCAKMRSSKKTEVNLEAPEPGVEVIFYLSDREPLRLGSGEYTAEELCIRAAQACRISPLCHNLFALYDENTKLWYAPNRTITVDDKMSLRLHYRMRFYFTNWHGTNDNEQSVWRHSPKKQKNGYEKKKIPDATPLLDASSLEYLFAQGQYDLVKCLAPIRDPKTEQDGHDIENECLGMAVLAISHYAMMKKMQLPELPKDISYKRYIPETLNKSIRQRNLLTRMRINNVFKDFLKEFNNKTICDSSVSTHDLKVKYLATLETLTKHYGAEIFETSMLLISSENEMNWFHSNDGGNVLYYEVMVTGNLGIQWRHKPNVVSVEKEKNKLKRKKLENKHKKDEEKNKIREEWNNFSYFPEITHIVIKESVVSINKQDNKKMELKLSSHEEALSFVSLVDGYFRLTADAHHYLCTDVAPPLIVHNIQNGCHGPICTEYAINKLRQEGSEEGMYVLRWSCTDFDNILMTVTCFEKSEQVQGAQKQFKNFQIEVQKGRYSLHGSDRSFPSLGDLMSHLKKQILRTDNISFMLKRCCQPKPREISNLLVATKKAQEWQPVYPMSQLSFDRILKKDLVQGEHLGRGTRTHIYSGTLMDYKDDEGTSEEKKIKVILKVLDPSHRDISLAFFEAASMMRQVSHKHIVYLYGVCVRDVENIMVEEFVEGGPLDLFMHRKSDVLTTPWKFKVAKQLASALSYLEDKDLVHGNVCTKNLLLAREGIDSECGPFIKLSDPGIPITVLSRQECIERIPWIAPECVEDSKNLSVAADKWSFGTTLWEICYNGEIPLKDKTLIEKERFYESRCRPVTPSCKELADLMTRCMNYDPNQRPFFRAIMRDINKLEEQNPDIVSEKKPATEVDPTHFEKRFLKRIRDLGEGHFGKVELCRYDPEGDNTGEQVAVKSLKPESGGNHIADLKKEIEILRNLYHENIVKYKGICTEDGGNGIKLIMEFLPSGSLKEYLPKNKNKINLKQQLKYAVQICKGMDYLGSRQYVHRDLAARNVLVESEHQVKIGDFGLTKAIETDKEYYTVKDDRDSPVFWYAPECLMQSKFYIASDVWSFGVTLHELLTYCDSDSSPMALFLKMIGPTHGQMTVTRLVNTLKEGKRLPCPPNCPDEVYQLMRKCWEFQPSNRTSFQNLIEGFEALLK
Sequence of TYK2 (P29597 whole entry): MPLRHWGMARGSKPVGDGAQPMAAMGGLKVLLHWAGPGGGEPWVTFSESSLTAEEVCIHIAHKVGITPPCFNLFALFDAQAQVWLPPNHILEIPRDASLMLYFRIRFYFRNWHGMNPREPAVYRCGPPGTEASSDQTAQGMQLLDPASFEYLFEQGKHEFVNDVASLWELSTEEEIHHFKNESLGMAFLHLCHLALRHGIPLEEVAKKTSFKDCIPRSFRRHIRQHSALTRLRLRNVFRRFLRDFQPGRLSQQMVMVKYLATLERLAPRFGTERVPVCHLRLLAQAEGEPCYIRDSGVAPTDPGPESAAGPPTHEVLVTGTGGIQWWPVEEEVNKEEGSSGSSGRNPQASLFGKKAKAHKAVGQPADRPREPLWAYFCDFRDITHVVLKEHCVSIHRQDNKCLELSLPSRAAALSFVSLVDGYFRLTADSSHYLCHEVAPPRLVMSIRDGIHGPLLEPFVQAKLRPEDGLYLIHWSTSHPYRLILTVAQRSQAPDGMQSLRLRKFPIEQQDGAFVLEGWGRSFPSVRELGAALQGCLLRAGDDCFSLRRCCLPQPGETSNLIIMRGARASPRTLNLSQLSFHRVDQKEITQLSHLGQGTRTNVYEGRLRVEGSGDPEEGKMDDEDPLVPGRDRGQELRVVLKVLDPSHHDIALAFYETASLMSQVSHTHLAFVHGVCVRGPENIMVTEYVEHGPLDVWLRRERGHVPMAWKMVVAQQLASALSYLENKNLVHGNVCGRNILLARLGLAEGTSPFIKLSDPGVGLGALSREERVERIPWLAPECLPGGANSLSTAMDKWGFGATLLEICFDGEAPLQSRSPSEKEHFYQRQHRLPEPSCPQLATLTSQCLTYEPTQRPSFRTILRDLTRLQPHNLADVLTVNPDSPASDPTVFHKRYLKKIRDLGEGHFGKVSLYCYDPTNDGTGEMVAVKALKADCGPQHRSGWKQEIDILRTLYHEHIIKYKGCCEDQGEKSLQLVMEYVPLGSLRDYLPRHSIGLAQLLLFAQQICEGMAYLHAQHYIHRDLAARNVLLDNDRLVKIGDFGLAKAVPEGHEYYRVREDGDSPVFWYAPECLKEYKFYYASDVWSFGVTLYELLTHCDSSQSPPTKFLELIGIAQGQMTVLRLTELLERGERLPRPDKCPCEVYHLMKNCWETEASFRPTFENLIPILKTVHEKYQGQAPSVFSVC
Sequence of JAK2 (O60674 whole entry): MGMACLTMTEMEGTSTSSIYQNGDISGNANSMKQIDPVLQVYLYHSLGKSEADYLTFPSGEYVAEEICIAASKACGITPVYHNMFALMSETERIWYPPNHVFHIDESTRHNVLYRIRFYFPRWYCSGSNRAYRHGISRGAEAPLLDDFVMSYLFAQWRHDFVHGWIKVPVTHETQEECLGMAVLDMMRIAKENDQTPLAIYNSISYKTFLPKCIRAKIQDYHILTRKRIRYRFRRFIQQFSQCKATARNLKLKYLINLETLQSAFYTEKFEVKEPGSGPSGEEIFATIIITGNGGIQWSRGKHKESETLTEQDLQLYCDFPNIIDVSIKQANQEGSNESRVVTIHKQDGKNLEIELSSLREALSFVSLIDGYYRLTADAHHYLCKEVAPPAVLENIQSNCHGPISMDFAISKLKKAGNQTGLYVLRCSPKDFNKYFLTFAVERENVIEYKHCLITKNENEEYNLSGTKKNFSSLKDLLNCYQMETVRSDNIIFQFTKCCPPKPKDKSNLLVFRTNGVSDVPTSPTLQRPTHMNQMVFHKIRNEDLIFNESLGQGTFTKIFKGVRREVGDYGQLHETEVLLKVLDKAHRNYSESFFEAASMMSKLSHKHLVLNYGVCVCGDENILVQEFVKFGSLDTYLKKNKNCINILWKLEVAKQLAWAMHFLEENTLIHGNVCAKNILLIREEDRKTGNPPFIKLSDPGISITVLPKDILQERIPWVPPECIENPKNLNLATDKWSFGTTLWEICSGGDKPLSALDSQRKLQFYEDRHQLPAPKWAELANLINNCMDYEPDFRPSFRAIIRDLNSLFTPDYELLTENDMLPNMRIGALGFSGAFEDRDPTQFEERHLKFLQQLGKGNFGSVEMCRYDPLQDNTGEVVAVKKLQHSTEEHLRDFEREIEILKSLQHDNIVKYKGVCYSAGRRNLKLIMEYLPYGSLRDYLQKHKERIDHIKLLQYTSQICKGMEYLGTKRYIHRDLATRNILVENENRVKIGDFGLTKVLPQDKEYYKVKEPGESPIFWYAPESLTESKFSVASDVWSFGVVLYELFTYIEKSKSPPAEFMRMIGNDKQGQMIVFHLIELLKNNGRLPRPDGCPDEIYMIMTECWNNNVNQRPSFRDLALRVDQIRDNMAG

For the compound `Nc1cc2ccc1-c1ccnc(n1)Nc1ccc(N3CCOCC3)c(c1)COCCCCNC2=O` [Example 31, 1^2-amino-4^4-morpholin-6-oxa-3,11-diaza-2(4,2)-pyrimidina-1(1,4),4(1,3)-dibenzenacyclododecaphan-12-one], the IC50 in assay [1] is 0.011 to 0.1 µM; in assay [2], 0.101 to 1 µM; in assay [3], 0.101 to 1 µM; in assay [4], below 0.01 µM.

For the compound `O=C1NCCCCCc2cc(ccc2N2CCOCC2)Nc2nccc(n2)-c2ccc1cc2` [Example 32, 4^4-morpholin-3,11-diaza-2(4,2)-pyri-midina-1(1,4),4(1,3)-dibenzenacyclo-dodecaphan-11-one], the IC50 in assay [1] was below 0.01 µM; in assay [2], 0.101 to 1 µM; in assay [3], 0.101 to 1 µM; in assay [4], 0.011 to 0.1 µM.

For `COc1ccc2cc1COCCCCNC(=O)c1ccc(c(C)c1)-c1nc(ncc1C)N2` [Example 33, 1^2,2^5-dimethyl-4^4-methoxy-6-oxa-3,11-diaza-2(4,2)-pyrimidina-1(1,4),4(1,3)-dibenzenacyclododecaphan-12-one], the IC50 in assay [1] is 1 to 10 µM; in assay [2] it was above 10 µM; in assay [3] it was 1 to 10 µM; in assay [4], 1 to 10 µM.

Turning to `O=C1NCCCCOCc2cc(ccc2N2CCCC2)Nc2nccc(n2)-c2ccc1cc2F` [Example 34, 1^2-fluoro-4^4-(pyrrolidin-1-)-6-oxa-3,11-diaza-2(4,2)-pyrimidina-1(1,4),4(1,3)-dibenzenacyclododecaphan-12-one], the IC50 in assay [1] was 0.101 to 1 µM; in assay [2], 1 to 10 µM; in assay [3], 0.101 to 1 µM; in assay [4] it was 0.011 to 0.1 µM.

With `Cc1cc2ccc1-c1nc(ncc1C)Nc1ccc(Cl)c(c1)COCCCCNC2=O` [Example 35, 1^2,2^5-dimethyl-4^4-chloro-6-oxa-3,11-diaza-2(4,2)-pyrimidina-1(1,4),4(1,3)-dibenzenacyclododecaphan-12-one], the IC50 is above 10 µM in assay [1], above 10 µM in assay [2], above 10 µM in assay [3] and 1 to 10 µM in assay [4].

Turning to `Cc1cc2ccc1-c1nc(ncc1C)Nc1cccc(c1)COCCCCNC2=O` [Example 36, 1^2,2^5-dimethyl-6-oxa-3,11-diaza-2(4,2)-pyrimidina-1(1,4),4(1,3)-diben-zenacyclododecaphan-12-one], the IC50 in assay [1] is above 10 µM; in assay [2], above 10 µM; in assay [3] it was above 10 µM; in assay [4] it was 1 to 10 µM.

For `Cc1ccc2cc1COCCCCNC(=O)c1ccc(c(C)c1)-c1nc(ncc1C)N2` [Example 37, 1^2,2^5,4^4-trimethyl-6-oxa-3,11-diaza-2(4,2)-pyrimidina-1(1,4),4(1,3)-di-benzenacyclododecaphan-12-one], the IC50 in assay [1] is above 10 µM; in assay [2] it was above 10 µM; in assay [3], above 10 µM; in assay [4], 1 to 10 µM.

For `Cc1ccc2cc1COCCCCNC(=O)c1ccc(c(F)c1)-c1ccnc(n1)N2` [Example 38, 1^2-fluoro-4^4-methyl-6-oxa-3,11-diaza-2(4,2)-pyrimidina-1(1,4),4(1,3)-di-benzenacyclododecaphan-12-one], the IC50 fell in the range of 0.101 to 1 µM in assay [1], 1 to 10 µM in assay [2], 0.101 to 1 µM in assay [3] and 0.101 to 1 µM in assay [4].

For `Cc1ccc2cc1COCCCCNC(=O)c1ccc(c(C)c1)-c1ccnc(n1)N2` [Example 39, 1^2,4^4-dimethyl-6-oxa-3,11-diaza-2(4,2)-pyrimidina-1(1,4),4(1,3)-diben-zenacyclododecaphan-12-one], the IC50 in assay [1] was 1 to 10 µM; in assay [2], above 10 µM; in assay [3], 1 to 10 µM; in assay [4], 0.101 to 1 µM.

With `Cc1cc2ccc1-c1ccnc(n1)Nc1cccc(c1)COCCCCNC2=O` [Example 40, 1^2-methyl-6-oxa-3,11-diaza-2(4,2)-pyrimidina-1(1,4),4(1,3)-diben-zenacyclododecaphan-12-one], the IC50 in assay [1] was 1 to 10 µM; in assay [2] it was above 10 µM; in assay [3], 1 to 10 µM; in assay [4], 0.101 to 1 µM.

Turning to `O=C1NCCCCOCc2cc(ccc2N2CCOCC2)Nc2nccc(n2)-c2ccc1cc2I` [Example 41, 1^2-iodine-4^4-morpholin-6-oxa-3,11-diaza-2(4,2)-pyrimidina-1(1,4),4(1,3)-dibenzenacyclododephan-12-one], the IC50 in assay [1] was 0.101 to 1 µM; in assay [2] it was 1 to 10 µM; in assay [3] it was 1 to 10 µM; in assay [4] it was 0.101 to 1 µM.

Turning to `Cc1cc2ccc1-c1ccnc(n1)Nc1ccc(N3CCCCC3)c(c1)COCCCCNC2=O` [Example 42, 1^2-methyl-4^4-(piperidin-1-)-6-oxa-3,11-diaza-2(4,2)-pyrimidina-1(1,4),4(1,3)-dibenzenacyclododecaphan-12-one], the IC50 in assay [1] lay within 0.101 to 1 µM; in assay [2], 0.101 to 1 µM; in assay [3], 1 to 10 µM; in assay [4], 0.011 to 0.1 µM.

Turning to `Cc1ccc2cc1COCCCCNC(=O)c1ccc(c(N)c1)-c1ccnc(n1)N2` [Example 43, 1^2-amino-4^4-methyl-6-oxa-3,11-dia-za-2(4,2)-pyrimidina-1(1,4),4(1,3)-dibenzenacyclododecaphan-12-one], the IC50 in assay [1] is 1 to 10 µM; in assay [2], above 10 µM; in assay [3], 1 to 10 µM; in assay [4], 0.101 to 1 µM.

As for `Cc1cc2ccc1-c1ccnc(n1)Nc1ccc(OC3CCCCC3)c(c1)COCCCCNC2=O` [Example 44, 1^2-methyl-4^4-cyclohexyloxy-6-oxa-3,11-diaza-2(4,2)-pyrimidina-1(1,4)-4(1,3)-dibenzenacyclododecaphan-12-one], the IC50 in assay [1] fell in the range of 0.101 to 1 µM; in assay [2] it was 1 to 10 µM; in assay [3], 1 to 10 µM; in assay [4], 0.011 to 0.1 µM.

As for `Cc1cc2ccc1-c1nc(ncc1C)Nc1ccc(F)c(c1)COCCCCNC2=O` [Example 45, 1^2,2^5-dimethyl-4^4-fluoro-6-oxa-3,11-diaza-2(4,2)-pyrimidina-1(1,4),4(1,3)-dibenzenacyclododecaphan-12-one], the IC50 in assay [1] was 1 to 10 µM; in assay [2], above 10 µM; in assay [3], 1 to 10 µM; in assay [4] it was 1 to 10 µM.

For the compound `Cc1cc2ccc1-c1ccnc(n1)Nc1cc(cc(N3CCOCC3)c1)COCCCCNC2=O` [Example 46, 1^2-methyl-4^4-morpholin-6-oxa-3,11-diaza-2(4,2)-pyrimidina-1(1,4),4(1,3)-dibenzenacyclododecaphan-12-one], the IC50 in assay [1] was 0.101 to 1 µM; in assay [2], 1 to 10 µM; in assay [3], 1 to 10 µM; in assay [4] it was 0.011 to 0.1 µM.
